The values that follow come from article PMC6437269, “OXA-48-Mediated Ceftazidime-Avibactam Resistance Is Associated with Evolutionary Trade-Offs” (mSphere, 2019).

The term kcat denotes the maximal rate divided by the concentration of active sites. The Km is the concentration of substrate that gives half-maximal velocity.

The structures appear in SMILES notation. Values after ≈ are worked out from the molar mass of the structure shown. Where two headings read alike, the source gives them in different places.

The target in test [1] is T1, OXA-48:P68A (Klebsiella pneumoniae, UniProt Q6XEC0, P68A). Put plainly: Steady-state enzyme kinetics, OXA-48:P68A. It is filed as biochemical. Conditions: substrate hydrolysis, 25°C, pH 7.0, error = 95% CI.
In test [2] the target is T1, OXA-48:P68A. Put plainly: IC50 with nitrocefin as reporter substrate, OXA-48:P68A. It counts as biochemical. Conditions: P68A compared to native OXA-48.
Test [3] deals with E. coli MG1655 (MP100). As to the kind of experiment: microbe, parasite or virus in culture. It counts as cell-based, Escherichia coli. Conditions: Escherichia coli, MG1655; Table 6; MP100; read-out: MIC. As for the experimental part:
(§1) For MIC determination, single colonies were suspended in 0.9% saline buffer to a 0.5 McFarland standard and further diluted 1:100 in MH broth. Fifty microliters of the bacterial suspension was loaded onto in-house-designed and premade Sensititre microtiter plates (TREK Diagnostic Systems/Thermo Fisher Scientific, East Grinstead, United Kingdom). The plates were incubated for 20 h at 37°C. Antibiotic susceptibility testing was performed in duplicates.

The subject of test [4] is MP107 (MP100 transformed with p50579417_3_OXA-48-CAZ). As to the kind of experiment: MIC determination, MP107 (MG1655 with CAZ-adapted plasmid). It is filed as cell-based. The following applies: Escherichia coli; Table 6; MP107, adapted plasmid p50579417-OXA-48-CAZ. The method, then: as §1
For test [5], the system named is MP108 (MP100 transformed with p50579417_3_OXA-48-CAZ-AVI). Put plainly: MIC determination, MP108 (MG1655 with CAZ-AVI-adapted plasmid). It is filed as cell-based. The following applies: Escherichia coli; Table 6; MP108, adapted plasmid p50579417-OXA-48-CAZ-AVI. As for the experimental part: as §1
Test [6] concerns E. coli TOP10. Put plainly: microbe, parasite or virus in culture. The following applies: Escherichia coli, Table 3, read-out: MIC. It is filed as cell-based. As for the experimental part: as §1
Test [7] relates to MP104 (E. coli TOP10 expressing native OXA-48). Put plainly: MIC determination, TOP10 expressing native OXA-48 (MP104). Conditions: Escherichia coli; Table 3; MP104, native OXA-48 in pCR-blunt II TOPO. It is filed as cell-based. The method, then: as §1
For a functional resistance profile, the native and mutated blaOXA-48 genes were cloned in the pCR-blunt II-TOPO vector (Invitrogen, CA) and expressed in E. coli TOP10 (Invitrogen, CA). The PCR product was obtained by Phusion High Fidelity PCR mastermix with High Fidelity buffer (New England Biolabs, MA) and preOXA-48 primers ([61]). Transformants were selected on LB agar plates containing 50 or 100 mg/liter ampicillin. Insertion size was verified by Sanger sequencing using M13 forward (5′-[…]-3′) and reverse (5′-[…]-3′) primers.

For test [8], the system named is MP101 (MP100 transformed with p50579417_3_OXA-48). As to the kind of experiment: MIC determination, MP101 (MG1655 with native OXA-48 plasmid). The following applies: Escherichia coli; Table 6; MP101, native plasmid; read-out: MIC. It counts as cell-based, Escherichia coli.
Text: Mueller-Hinton (MH) agar and broth were purchased from Thermo Fisher Scientific (East Grinstead, United Kingdom). Luria-Bertani (LB) broth, LB agar, ampicillin, amoxicillin, cefepime, CAZ, imipenem, meropenem, piperacillin, and tazobactam were obtained from Sigma-Aldrich (St. Louis, MO). Nitrocefin was purchased from Merck (Darmstadt, Germany). The characteristics of the clinical E. coli strain 50579417 harboring the OXA-48 plasmid (p50579417_3_OXA-48) have been described previously ([61], [62]). The plasmid p50579417_3_OXA-48 was conjugated into rifampin-resistant E. coli TOP10 and subsequently isolated using a plasmid mini-purification kit (Qiagen, Germany). E. coli MG1655 (DA4201) was electroporated with p50579417_3_OXA-48 as published previously ([63]). Transformants positive for blaOXA-48 were checked by PCR using REDTaq ready mix (Sigma-Aldrich, St. Louis, MO) and preOXA-48 primers ([61]).
as §1

The test system of test [9] is MP105 (E. coli TOP10 expressing OXA-48:P68A). As to the kind of experiment: microbe, parasite or virus in culture. It counts as cell-based. Conditions: Escherichia coli; Table 3; MP105, OXA-48:P68A in pCR-blunt II TOPO.

T1 sequence (Q6XEC0 23-265 P68A): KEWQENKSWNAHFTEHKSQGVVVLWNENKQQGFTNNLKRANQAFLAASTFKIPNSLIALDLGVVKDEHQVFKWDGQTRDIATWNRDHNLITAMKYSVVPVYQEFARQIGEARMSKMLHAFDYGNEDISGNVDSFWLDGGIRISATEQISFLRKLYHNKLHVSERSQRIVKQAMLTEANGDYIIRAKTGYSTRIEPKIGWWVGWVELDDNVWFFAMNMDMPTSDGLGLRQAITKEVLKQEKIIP

Regarding `CC1(C)S[C@@H]2[C@H](NC(=O)[C@H](N)c3ccccc3)C(=O)N2[C@H]1C(=O)O` [AMP, ampicillin], the turnover number (kcat) in [1] amounted to 25 ± 1 s⁻¹. In addition, the Km in test [1] (read-out: Km) was found to be 77 ± 12 µM.
As to `NC(=O)[C@@H]1CC[C@@H]2CN1C(=O)N2OS(=O)(=O)O` [Avibactam, avibactam], in test [2], the “change in the inhibitory activity” value is on record as “no change”.
For `CO/N=C(\C(=O)N[C@@H]1C(=O)N2C(C(=O)O)=C(COC(N)=O)CS[C@H]12)c1ccco1` [CXM, cefuroxime], the MIC in test [3] is 8 µg/mL (≈ 18.9 µM); in test [4] it was 16 µg/mL (≈ 37.7 µM); in test [5], 8 µg/mL (≈ 18.9 µM); in test [6], 16 µg/mL (≈ 37.7 µM); in [7] it was 16 µg/mL (≈ 37.7 µM); in [8] it was 16 µg/mL (≈ 37.7 µM). The MIC in test [9] turned out to be 16 µg/mL (≈ 37.7 µM).
`C[C@@H](O)[C@H]1C(=O)N2C(C(=O)O)=C(S[C@@H]3CN[C@H](CNS(N)(=O)=O)C3)[C@H](C)[C@H]12` [DOR, doripenem]: the MIC in [3] was determined as 0.015 µg/mL (≈ 0.0357 µM); in test [4], 0.03 µg/mL (≈ 0.0713 µM); in test [5], 0.03 µg/mL (≈ 0.0713 µM); in [6] it was 0.03 µg/mL (≈ 0.0713 µM); in test [7], 0.03 µg/mL (≈ 0.0713 µM); in test [8] it was 0.03 µg/mL (≈ 0.0713 µM). Besides, the MIC in test [9] came out at 0.03 µg/mL (≈ 0.0713 µM).
Take `C[C@@H](O)[C@H]1C(=O)N2C(C(=O)O)=C(S[C@@H]3CN[C@H](C(=O)Nc4cccc(C(=O)O)c4)C3)[C@H](C)[C@H]12` [ETP, ertapenem]: the MIC is 0.015 µg/mL (≈ 0.0315 µM) in test [3]; 0.25 µg/mL (≈ 0.526 µM) in test [4]; 0.12 µg/mL (≈ 0.252 µM) in [5]; 0.015 µg/mL (≈ 0.0315 µM) in test [6]; 1 µg/mL (≈ 2.1 µM) in test [7]; 1 µg/mL (≈ 2.1 µM) in test [8]. The molecule also showed an MIC in [9] of 0.06 µg/mL (≈ 0.126 µM).
For the molecule `CO/N=C(\C(=O)N[C@@H]1C(=O)N2C(C(=O)[O-])=C(C[N+]3(C)CCCC3)CS[C@H]12)c1csc(N)n1` [FEP, cefepime], the MIC in test [3] worked out at 0.06 µg/mL (≈ 0.125 µM); in test [4], 0.5 µg/mL (≈ 1.04 µM); in [5], 0.25 µg/mL (≈ 0.52 µM); in [6] it was 0.06 µg/mL (≈ 0.125 µM); in [7], 0.12 µg/mL (≈ 0.25 µM); in test [8] it was 0.25 µg/mL (≈ 0.52 µM). In test [9], this molecule showed an MIC of 0.25 µg/mL (≈ 0.52 µM). In test [1], the Km stood at 462 ± 126 µM. Also, in [1], the kcat worked out at 0.5 ± 0.1 s⁻¹.
